Measured values published in ChEMBL document CHEMBL1150920, “Three new ellagic acid derivatives from the bark of Eschweilera coriacea from the Suriname rainforest” (1998).

Test system: Saccharomyces cerevisiae
Assay: DNA damaging activity against Sc-7 yeast assessed as drug level required to produce 12 mm zone of inhibition
Type: functional

| Structure (SMILES) | IC12 |
| --- | --- |
| O=c1oc2c(O)c(Oc3ccc(O)c(O)c3O)cc3c(=O)oc4c(O)c(O)cc1c4c23 [ESCHWEILENOL A] | 1000 µg/mL |
| C[C@@H]1O[C@@H](Oc2cc3c(=O)oc4c(O)c(O)cc5c(=O)oc(c2O)c3c45)[C@H](O)[C@H](O)[C@H]1O [ESCHWEILENOL C] | 2000 µg/mL |
